Patent US20120252721A1 (priority 2011, published 2012)

What was measured:
[1] = test system: HCV genotype 1a replicon, NS4B E15G; test: Luciferase replicon transient transfection assay, genotype 1a NS4B E15G; type: cell-based, hepatitis C virus; conditions: for EC50: Hepatitis C virus, HCV region NS4B, mutation E15G; for Ratio: NS4B E15G
Procedure: (§1) The luciferase replicon transient transfection assay measures the ability of a test compound to inhibit the replication of a transiently-transfected HCV luciferase-bearing wild-type or mutant replicon in cured human hepatoma cells (Huh7.5). The inhibition of HCV replication was measured by quantification of luciferase protein expression. This assay has been validated using a panel of genotype 1a and 1b replicons bearing mutations known to be associated with resistance to BMS-790052. Briefly, subconfluent Huh7.5 cells were electroporated with 10 μg of wild-type or mutant luciferase-bearing HCV replicon RNA. The cells were then seeded in 96-well opaque white plates at 3×10^4 cells/well in 150 μL/well and incubated for 4 hrs at 37° C./5% CO2. Ten 1:5 serial dilutions of each test compound were made in media (DMEM containing glucose, L-glutamine and sodium pyruvate, 10% fetal bovine serum, 100 IU/mL penicillin, 100 μg/mL streptomycin, 2 mM GlutaMAX, and 1×MEM non-essential amino acids (Mediatech, Inc. and Invitrogen Corp.)) at concentrations that were 4× higher than the final concentrations to be tested and 50 μL/well was added to the transfected cells. Untreated, mock-transfected cells served as a negative control of luciferase expression. The plates were incubated at 37° C./5% CO2 for 4 days whereupon the media was removed and 50 μL of ONE-glo luciferase substrate (Promega) was added to each well. The plates were agitated on a rotating platform at room temperature for 3 min and read in a Victor^3V microplate reader (Perkin-Elmer) using a 700 nm cut-off filter with a 1 sec read time. EC50 values were calculated from dose response curves from the resulting best-fit equations determined by Microsoft Excel and XLfit 4.1 software.
(§2) To determine the replication capacity of each mutant relative to the wild-type parental replicon, transfected cells were plated on two plates and were not treated with compound. Luciferase activity was measured at time points of 4 hrs and 4 days after plating for each replicon. Replication capacity was calculated by dividing the day 4 CPS by the 4 hour CPS for each replicon and determining the percentage present for each mutant replicon relative to wild-type replicon values. The NS3, NS4B, and NS5B mutants were prepared and tested according to the methods described herein.

[2] = test system: 1a-luc L31M (HCV genotype 1a replicon); test: Luciferase replicon transient transfection assay, 1a-luc L31M; type: cell-based, hepatitis C virus; conditions: for EC50: Hepatitis C virus, 96 h, Huh7.5 cells, 4 days
Procedure: as §1

[3] = test system: HCV genotype 1a replicon, NS5A E295G; test: Luciferase replicon transient transfection assay, genotype 1a NS5A E295G; type: cell-based, hepatitis C virus; conditions: for EC50: Hepatitis C virus, genotype 1a, HCV region NS5A, mutation E295G
Procedure: as §1

[4] = test system: ZS11-luc Y93N (HCV genotype 1b replicon); test: Luciferase replicon transient transfection assay, ZS11-luc Y93N; type: cell-based, hepatitis C virus; conditions: for EC50: Hepatitis C virus, 96 h, Huh7.5 cells, 4 days
Procedure: as §1

[5] = test system: ZS11-luc replicon, NS3-R155K; test: Luciferase replicon transient transfection assay, NS3-R155K; type: cell-based, hepatitis C virus; conditions: for EC50: Hepatitis C virus
Procedure: as §1, §2

H1a-luc or Zluc cells = test: in vitro; type: cell-based, human; conditions: Table 1B, cellular viability
Summary of the method: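 Cytotoxicity counter-screen in which the H1a-luc or Zluc cells were compound-treated and viability was read with the CellTiter 96 AQueous One (MTS) reagent by absorbance at 490 nm. CC50 values came from curve fitting.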

[6] = test system: ZS11-luc P32L (HCV genotype 1b replicon); test: Luciferase replicon transient transfection assay, ZS11-luc P32L; type: cell-based, hepatitis C virus; conditions: for EC50: Hepatitis C virus, 96 h, Huh7.5 cells, 4 days
Procedure: as §1

[7] = test system: ZS11-luc replicon, NS3-D168V; test: Luciferase replicon transient transfection assay, NS3-D168V; type: cell-based, hepatitis C virus; conditions: for EC50: Hepatitis C virus
Procedure: as §1, §2

HCV genotype 5a = test: Replicon assay, genotype 5a (method not described); type: cell-based; conditions: Hepatitis C virus
[8] = test system: ZS11-luc L28T (HCV genotype 1b replicon); test: Luciferase replicon transient transfection assay, ZS11-luc L28T; type: cell-based, hepatitis C virus; conditions: for EC50: Hepatitis C virus, 96 h, Huh7.5 cells, 4 days
Procedure: as §1

[9] = test system: ZS11-luc replicon, NS3-A156T; test: Luciferase replicon transient transfection assay, NS3-A156T; type: cell-based, hepatitis C virus; conditions: for EC50: Hepatitis C virus
Procedure: as §1, §2

[10] = test system: HCV Con1 subgenomic replicon (GS4.1 cells); test: HCV replicon assay (NS5A ELISA, 72 hrs); type: cell-based; conditions: Hepatitis C virus
Summary of the method: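 GS4.1 cells (Huh-7 carrying the Con1 subgenomic replicon) were seeded at 7.5×10^3 cells/well and dosed 3 h later with ten 2-fold dilutions (top 75 μM) or a single 15 μM in 0.5% DMSO, then held 72 h at 37 °C. NS5A was quantified by cell ELISA (mAb A-236, OPD, A492), and EC50s came from four-parameter sigmoidal fits.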

| Structure (SMILES) | EC50 [1] [nM] | Ratio [1] | Ratio [2] | EC50 [2] [nM] | EC50 [3] [nM] | Ratio [3] | Ratio [4] | EC50 [4] [nM] | EC50 [5] [nM] | Ratio [5] | CC50 (H1a-luc or Zluc cells) [nM] | Ratio [6] | EC50 [6] [nM] | EC50 [7] [nM] | Ratio [7] | EC50 (HCV genotype 5a) [nM] | Ratio [8] | EC50 [8] [nM] | EC50 [9] [nM] | Ratio [9] | further results |
| --- | --- | --- | --- | --- | --- | --- | --- | --- | --- | --- | --- | --- | --- | --- | --- | --- | --- | --- | --- | --- | --- |
| COC(=O)N[C@H](C(=O)N1CCC[C@H]1c1nc2cc(-c3csc4c(-c5ccc(-c6cnc([C@@H]7CCCN7C(=O)[C@H](NC(=O)OC)c7ccccc7)[nH]6)cc5)csc34)ccc2[nH]1)C(C)C [Compound A169, [(S)-1-((S)-2-{6-[6-(4-{(S)-2-[1-((R)-2-methoxycarbonylamino-2-phenyl-acetyl)-pyrrolidin-2-yl]-3H-imidazol-4-yl}-phenyl)-thieno[3,2-b]thiophen-3-yl]-1H-benzoimidazol-2-yl}-pyrrolidine-1-carbonyl)-2-methyl-propyl]-carbamic acid methyl ester] | 0.003 | 1.52 | 311 | 0.7 | 0.004 | 1.62 | 146 | 0.4 | 0.0017 | 1.01 | > 75000 | 8 | 0.02 | 0.0018 | 1.04 | < 0.1 | 73 | 0.2 | 0.0018 | 1.09 |  |
| COC(=O)N[C@H](C(=O)N1CCC[C@H]1c1ncc(-c2ccc(-c3csc4c(-c5cnc([C@@H]6CCCN6C(=O)[C@@H](NC(=O)OC)C(C)C)[nH]5)csc34)cc2)[nH]1)C(C)C [Compound A15, [(S)-1-((S)-2-{4-[4-(6-{2-[(S)-1-((S)-2-methoxycarbonylamino-3-methyl-butyryl)-pyrrolidin-2-yl]-3H-imidazol-4-yl}-thieno[3,2-b]thiophen-3-yl)-phenyl]-1H-imidazol-2-yl}-pyrrolidine-1-carbonyl)-2-methyl-propyl]-carbamic acid methyl ester] |  |  |  |  |  |  |  |  |  |  |  |  |  |  |  |  |  |  |  |  | EC50 [10]: < 1 nM |
| COC(=O)N[C@H](C(=O)N1CCC[C@H]1c1ncc(-c2ccc(-c3csc4c(-c5cnc([C@@H]6CCCN6C(=O)[C@H](NC(=O)OC(C)(C)C)c6ccccc6)[nH]5)csc34)cc2)[nH]1)C(C)C [Compound A111, [(S)-1-((S)-2-{4-[4-(6-{(S)-2-[1-((R)-2-tert-butoxycarbonylamino-2-phenyl-acetyl)-pyrrolidin-2-yl]-3H-imidazol-4-yl}-thieno[3,2-b]thiophen-3-yl)-phenyl]-1H-imidazol-2-yl}-pyrrolidine-1-carbonyl)-2-methyl-propyl]-carbamic acid methyl ester] |  |  |  |  |  |  |  |  |  |  | > 75000 |  |  |  |  |  |  |  |  |  | EC50 [10]: < 1 nM |
| COC(=O)N[C@H](C(=O)N1CCC[C@H]1c1ncc(-c2ccc(-c3csc4c(-c5ccc6[nH]c([C@@H]7CCCN7C(=O)[C@H](NC(=O)OC)c7ccccc7)nc6c5)csc34)cc2)[nH]1)C(C)C [Compound A172, [(S)-1-((S)-2-{5-[4-(6-{(S)-2-[1-((R)-2-Methoxycarbonylamino-2-phenyl-acetyl)-pyrrolidin-2-yl]-3H-benzoimidazol-5-yl}-thieno[3,2-b]thiophen-3-yl)-phenyl]-1H-imidazol-2-yl}-pyrrolidine-1-carbonyl)-2-methyl-propyl]-carbamic acid methyl ester] | 0.006 | 1.68 | 378 | 2 | 0.006 | 1.67 | 65 | 0.3 | 0.0023 | 1.02 | > 75000 | 6 | 0.03 | 0.0024 | 1.04 | < 0.1 | 63 | 0.2 | 0.0026 | 1.14 |  |
